Results taken from patent US20260159520A1, “HETEROBIFUNCTIONAL COMPOUNDS AND METHODS OF TREATING DISEASE” (Halda Therapeutics OpCo, Inc., priority 2022, published 2026).

Columns and labels:
[1] = tested on: T-Rex 293 cell line SC3 cells having increased expression of androgen receptor protein; test: Cellular growth inhibition, T-Rex 293 SC3 cells with doxycycline (increased androgen receptor expression); assay type: cell-based; conditions: with 10 ng/mL doxycycline (increased androgen receptor), 72 hours, CellTiter-Glo 2.0
Method in brief: (§1)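 Doxycycline (10 ng/mL) was either included or omitted to toggle wild-type androgen receptor expression in SC3 cells, a T-Rex 293 clone, grown in stripped-serum, phenol red-free medium. After 72 hours with compound, viable cells were quantified by CellTiter-Glo 2.0.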

[2] = tested on: T-Rex 293 cell line SC3 cells lacking increased expression of androgen receptor protein; test: Cellular growth inhibition, T-Rex 293 SC3 cells without doxycycline; assay type: cell-based; conditions: not exposed to doxycycline, 72 hours, CellTiter-Glo 2.0
Method in brief: as §1

CDK9 = target: T1, CDK9 (Homo sapiens, UniProt P50750); test: KdELECT binding assay, CDK9; conditions: CDK9, Table 7
T1 construct: made in house; host or cells: E. coli BL21-derived host (T7 phage) or HEK-293 ('BEK-293' [sic])
T1 sequence (P50750 whole entry): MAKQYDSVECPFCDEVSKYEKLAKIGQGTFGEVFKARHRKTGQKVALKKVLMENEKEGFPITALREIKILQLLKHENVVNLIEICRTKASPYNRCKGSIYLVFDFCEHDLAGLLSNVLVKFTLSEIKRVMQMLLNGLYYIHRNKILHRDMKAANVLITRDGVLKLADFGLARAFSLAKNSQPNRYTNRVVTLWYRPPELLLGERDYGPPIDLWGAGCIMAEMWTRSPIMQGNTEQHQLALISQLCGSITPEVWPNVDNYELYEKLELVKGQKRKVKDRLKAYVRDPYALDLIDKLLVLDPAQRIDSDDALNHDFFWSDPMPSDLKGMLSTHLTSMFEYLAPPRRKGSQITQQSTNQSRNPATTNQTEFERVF
Experimental: Compounds were tested using a KdELECT. Kinase-tagged T7 phage strains were prepared in an E. coli host derived from the BL21 strain. E. coli were grown to log-phase and infected with T7 phage and incubated with shaking at 32° C. until lysis. The lysates were centrifuged and filtered to remove cell debris. The remaining kinases were produced in BEK-293 cells and subsequently tagged with DNA for qPCR detection. Streptavidin-coated magnetic beads were treated with biotinylated small molecule ligands for 30 minutes at room temperature to generate affinity resins for kinase assays. The liganded beads were blocked with excess biotin and washed with blocking buffer (SeaBlock (Pierce), 1% BSA, 0.05% Tween 20, 1 mM DTT) to remove unbound ligand and to reduce non-specific binding. Binding reactions were assembled by combining kinases, liganded affinity beads, and test compounds in 1× binding buffer (20% SeaBlock, 0.17×PBS, 0.05% Tween 20, 6 mM DTT). Test compounds were prepared as 111× stocks in 100% DMSO. Kd values were determined using an 11-point 3-fold compound dilution series with three DMSO control points. All compounds for Kd measurements are distributed by acoustic transfer (non-contact dispensing) in 100% DMSO. The compounds were then diluted directly into the assays such that the final concentration of DMSO was 0.9%. All reactions performed in polypropylene 384-well plate. Each was a final volume of 0.02 mL. The assay plates were incubated at room temperature with shaking for 1 hour and the affinity beads were washed with wash buffer (lx PBS, 0.05% Tween 20). The beads were then re-suspended in elution buffer (lx PBS, 0.05% Tween 20, 0.5 μM nonbiotinylated affinity ligand) and incubated at room temperature with shaking for 30 minutes. The kinase concentration in the eluates was measured by qPCR.

T47D cells = test: Cellular growth inhibition assay for T47D cells; assay type: cell-based; conditions: Homo sapiens, 72 hours, CellTiter-Glo 2.0
Experimental: T47D cells were purchased from American Type Cell Culture (ATCC Cat #HTB-133) and then seeded on poly-D-lysine coated, black clear-bottom 384-well plates at 3000/well in 25 μL Dulbecco's Modified Eagle Medium (DMEM) supplemented with 10% w/w Fetal bovine serum (FBS), 0.2 units/mL recombinant human insulin (Gibco Cat #12585014), and 1% w/w Pen-Strep. Pen-Strep is a commercially available mixture of penicillin G and streptomycin, which is used in mammalian cell culture media to prevent bacterial contamination. Dulbecco's Modified Eagle Medium (DMEM) supplemented with 10% w/w fetal bovine serum (FBS), 0.2 units/mL recombinant human insulin, and 1% w/w Pen-Strep is herein referred to as Treatment Medium. Following seeding of cells in the plates, the plates were spun at 300×g for 30 seconds, then equilibrated to room temperature for 30 minutes, and then deposited in a humidified tissue culture incubator maintained at 37° C. with 5% CO2.
At 24 hours after seeding of the cells, dilutions of test compound were prepared in DMSO and dissolved in Treatment Medium, to achieve a final DMSO concentration of 0.5% w/w, thereby providing the Test Compound Solution. A 25 μL aliquot of the Test Compound Solution was added to cells in the well plates. An equal volume of a solution containing DMSO and Treatment Medium was used as a negative control. Following treatment of cells with Test Compound Solution or said equal volume of a solution containing DMSO and Treatment Medium, the plates were spun at 300×g for 30 seconds, and then left in an incubator for 72 hours.
At the end of the treatment duration, cell viability was quantified with CellTiter-Glo 2.0 reagent (Promega Cat #G9243). For this purpose, plates were equilibrated to room temperature for 30 minutes, and then 25 μL of CellTiter-Glo 2.0 reagent was added to cells in the plate wells. Plates were then agitated on a shaker for two minutes at 500 rpm and subsequently incubated at room temperature for 10 minutes. Following incubation, the plates were spun at 3000×g for 30 seconds, then sealed with an optical adhesive cover, and luminescence readings were measured with an EnVision Plate Reader (Perkin Elmer).
Data was normalized using zero luminescence for baseline. A four-parameter non-linear regression curve fit was applied to dose-response data in GraphPad Prism data analysis software to determine the half-maximal growth inhibitory concentration (GI50) for each test compound.

VCaP cells = test: Cellular growth inhibition assay for VCaP cells; assay type: cell-based; conditions: Homo sapiens, 72 hours, CellTiter-Glo 2.0

SMILES	Kd (CDK9) [µM]	GI50 (T47D cells) [µM]	GI50 (VCaP cells) [µM]	GI50 [1] [µM]	GI50 [2] [µM]
CC1(C)[C@H](NC(=O)c2cnc(N3CCC(OCCN4C/C=C/CCOc5cccc(c5)-c5ccnc(n5)Nc5cccc(c5)C4)CC3)nc2)C(C)(C)[C@H]1Oc1ccc(C#N)c(Cl)c1 [Compound I-87, N-[3-(3-chloro-4-cyano-phenoxy)-2,2,4,4-tetramethyl-cyclobutyl]-2-[4-[2-[(16E)-20-oxa-5,7,14,27-tetrazatetracyclo [19.3.1.12,6.18,12]heptacosa-1(24),2(27),3,5,8(26),9,11,16, 21(25),22-decaen-14-yl]ethoxy]-1-piperidyl]pyrimidine-5-carboxamide]	0.5 to 2.5	0.5 to 1.5	> 3.5	0.1 to 1	> 3.5
CC1(C)[C@H](NC(=O)c2cnc(N3CCC(OCCOCCOCCOCCN4C/C=C/CCOc5cccc(c5)-c5ccnc(n5)Nc5cccc(c5)C4)CC3)nc2)C(C)(C)[C@H]1Oc1ccc(C#N)c(Cl)c1 [Compound I-90]	0.5 to 2.5	< 0.5	0.1 to 1	0.1 to 1	> 3.5
CN(CCCN1CCN(CCCNS(=O)(=O)c2ccc(Nc3ncc(Br)c(Nc4cccc(F)c4C(N)=O)n3)cc2)CC1)c1ncc(C(=O)N[C@H]2C(C)(C)[C@H](Oc3ccc(C#N)c(Cl)c3)C2(C)C)cn1 [Compound I-22, 2-((3-(4-(3-((4-((5-bromo-4-((2-carbamoyl-3-fluorophenyl)amino)pyrimidin-2-yl)amino)phenyl)sulfonamido)propyl)piperazin-1-yl)propyl) (methyl)amino)-N-((1r,3r)-3-(3-chloro-4-cyanophenoxy)-2,2,4,4-tetramethylcyclobutyl) pyrimidine-5-carboxamide]	0.5 to 2.5	< 0.5	–	1 to 3.5	> 3.5
CN(CCOCCOCCOCCOCCNS(=O)(=O)c1ccc(Nc2ncc(Br)c(Nc3cccc(F)c3C(N)=O)n2)cc1)c1ncc(C(=O)N[C@H]2C(C)(C)[C@H](Oc3ccc(C#N)c(Cl)c3)C2(C)C)cn1 [Compound I-20]	> 2.5	< 0.5	–	> 3.5	> 3.5

Further lines, with some results ahead:

Kd (CDK9) [µM]	GI50 (T47D cells) [µM]	GI50 (VCaP cells) [µM]	SMILES	GI50 [1] [µM]	GI50 [2] [µM]
< 0.05	1.5 to 3	0.1 to 1	COc1cc(F)ccc1-c1ccnc2[nH]c(C3CCN(CCOCCOC4CCN(c5ncc(C(=O)N[C@H]6C(C)(C)[C@H](Oc7ccc(C#N)c(Cl)c7)C6(C)C)cn5)CC4)CC3)cc12 [Compound I-69]	0.1 to 1	0.1 to 1
< 0.05	< 0.5	0.1 to 1	CCc1cnn2c(NCc3ccc(N(C)CC4CCN(CC5CCN(c6ncc(C(=O)N[C@H]7C(C)(C)[C@H](Oc8ccc(C#N)c(Cl)c8)C7(C)C)cn6)CC5)CC4)nc3)cc(N3CCCC[C@H]3CCO)nc12 [Compound I-59, N-((1r,3r)-3-(3-chloro-4-cyanophenoxy)-2,2,4,4-tetramethylcyclobutyl)-2-(4-((4-(((5-(((3-ethyl-5-((S)-2-(2-hydroxyethyl)piperidin-1-yl)pyrazolo[1,5-a]pyrimidin-7-yl)amino)methyl)pyridin-2-yl)(methyl)amino)methyl)piperidin-1-yl)methyl)piperidin-1-yl)pyrimidine-5-carboxamide]	< 0.1	0.1 to 1
< 0.05	0.5 to 1.5	< 0.1	CC(C)n1cc(-c2ccnc3[nH]c(C4CCN(CCOCCOCCOCCOC5CCN(c6ncc(C(=O)N[C@H]7C(C)(C)[C@H](Oc8ccc(C#N)c(Cl)c8)C7(C)C)cn6)CC5)CC4)cc23)ccc1=O [Compound I-78]	< 0.1	0.1 to 1
0.05 to 0.5	1.5 to 3	0.1 to 1	COc1cc(F)ccc1-c1ccnc2[nH]c(C3CCN(CCOCCOCCOCCOC4CCN(c5ncc(C(=O)N[C@H]6C(C)(C)[C@H](Oc7ccc(C#N)c(Cl)c7)C6(C)C)cn5)CC4)CC3)cc12 [Compound I-70]	1 to 3.5	1 to 3.5
< 0.05	< 0.5	< 0.1	CC(C)n1cc(-c2ccnc3[nH]c(C4CCN(CCOCCOC5CCN(c6ncc(C(=O)N[C@H]7C(C)(C)[C@H](Oc8ccc(C#N)c(Cl)c8)C7(C)C)cn6)CC5)CC4)cc23)ccc1=O [Compound I-76]	0.1 to 1	0.1 to 1
